Source: ChEMBL document CHEMBL3091347, “Comparison of Multiple Linear Regressions and Neural Networks based QSAR models for the design of new antitubercular compounds” (Eur J Med Chem, 2013)
≈ marks a conversion by molar mass, not a printed value.

Tests used:
[1] = system: Mycobacterium tuberculosis; assay: Antitubercular activity against Mycobacterium tuberculosis BCG; format: functional
[2] = Lipophilicity, log P of the compound; details: octanol/water
[3] = system: Mycobacterium tuberculosis; assay: Antitubercular activity against Mycobacterium tuberculosis; format: functional

| Structure (SMILES) | MIC [1] | log(1/MIC) [1] | logP ([2]; logP) | logP [2] | log(1/MIC) [3] | MIC ([3]; Mycobacterium tuberculosis) |
| --- | --- | --- | --- | --- | --- | --- |
| NNC(=O)c1cccc(N)c1 | 3 µg/mL (≈ 19.8 µM) | -0.4771 | -2.07 | – | – | – |
| NNC(=O)c1ccsc1 | 8 µg/mL (≈ 56.3 µM) | -0.9031 | -1.2 | – | – | – |
| CC(C)COc1ccc(/C=N/NC(=O)c2ccncc2)cc1 | 0.2 µg/mL (≈ 0.673 µM) | 0.699 | 2.81 | – | – | – |
| O=C(NNC(=O)c1ccncc1)c1ccncc1 | 8 µg/mL (≈ 33 µM) | -0.9031 | – | -2.984 | – | – |
| CC(C)N(N)C(=O)c1ccco1 | 15 µg/mL (≈ 89.2 µM) | -1.176 | 0.115 | – | – | – |
| NNC(=O)c1cscn1 | 15 µg/mL (≈ 105 µM) | -1.176 | -2.05 | – | – | – |
| O=C(NNCc1ccco1)c1ccncc1 | 15 µg/mL (≈ 69.1 µM) | -1.176 | -0.641 | – | – | – |
| C/C=C/CCCCCCC/C=N/NC(=O)c1ccncc1 | 0.15 µg/mL (≈ 0.522 µM) | 0.8239 | 2.29 | – | – | – |
| NNC(=O)c1ccc[nH]1 | 60 µg/mL (≈ 479 µM) | -1.778 | -1.99 | – | – | – |
| NNC(=O)Cc1ccsc1 | 100 µg/mL (≈ 640 µM) | -2 | -1.57 | – | – | – |
| NNC(=O)c1cncs1 | 10 µg/mL (≈ 69.8 µM) | -1 | -2.2 | – | – | – |
| Cc1ccc(C)n1NC(=O)c1ccncc1 | 10 µg/mL (≈ 46.5 µM) | -1 | 0.854 | – | – | – |
| CNC1C(OC2C(OC3C(O)C(O)C(NC(=N)N)C(O)C3NC(=N)N)OC(C)C2(O)/C=N/NC(=O)c2cccs2)OC(CO)C(O)C1O (configuration not stated) | 0.25 µg/mL (≈ 0.354 µM) | 0.6021 | – | – | – | – |
| CC(C)CCOc1ccc(/C=N/NC(=O)c2ccncc2)cc1 | 0.05 µg/mL (≈ 0.161 µM) | 1.301 | 3.34 | – | – | – |
| CC1CCC(NNC(=O)c2ccncc2)CC1 (configuration not stated) | 5 µg/mL (≈ 21.4 µM) | -0.699 | 0.594 | – | – | – |
| O=C(N/N=C\C(O)C(O)C(O)C(O)CO)c1ccncc1 (configuration not stated) | 0.15 µg/mL (≈ 0.501 µM) | 0.8239 | – | – | – | – |
| NNC(=O)c1ccc(Cl)cc1 | 3 µg/mL (≈ 17.6 µM) | -0.4771 | – | -0.132 | – | – |
| O=C(NNS(=O)(=O)c1ccc([N+](=O)[O-])cc1)c1ccncc1 | 60 µg/mL (≈ 186 µM) | -1.778 | -1.54 | – | – | – |
| NNC(=O)/C=C/c1ccccc1 | 0.4 µg/mL (≈ 2.47 µM) | 0.3979 | -1.23 | – | – | – |
| COc1ccc(C(=O)NN)cc1 | 8 µg/mL (≈ 48.1 µM) | -0.9031 | – | – | – | – |
| O=C(N/N=C/C(O)C(O)C(O)C(O)CO)c1cccs1 (configuration not stated) | 0.6 µg/mL (≈ 1.97 µM) | 0.2218 | – | -4.917 | – | – |
| NNC(=O)c1nccnc1C(=O)NN | 15 µg/mL (≈ 76.5 µM) | -1.176 | – | -5.666 | – | – |

| Structure (SMILES) | MIC [1] | log(1/MIC) [1] | logP ([2]; logP) | logP [2] | log(1/MIC) [3] | MIC ([3]; Mycobacterium tuberculosis) |
| --- | --- | --- | --- | --- | --- | --- |
| O=C(N/N=C/C(O)C(O)C(OC1OC(CO)C(O)C(O)C1O)C(O)CO)c1ccncc1 (configuration not stated) | 0.15 µg/mL (≈ 0.325 µM) | 0.8239 | – | – | – | – |
| CCCCCCCCCC/C=N/NC(=O)c1ccncc1 | 0.3 µg/mL (≈ 1.04 µM) | 0.5229 | 2.83 | – | – | – |
| O=C(NNC(=O)c1cccs1)c1cccs1 | 15 µg/mL (≈ 59.4 µM) | -1.176 | -0.738 | – | – | – |
| NNC(=O)Cc1ccc(Cl)cc1 | 10 µg/mL (≈ 54.2 µM) | -1 | -0.503 | – | – | – |
| O=C(NNC1CCCCC1)c1ccncc1 | 5 µg/mL (≈ 22.8 µM) | -0.699 | -0.055 | – | – | – |
| CC1CCCC(NNC(=O)c2ccncc2)C1 (configuration not stated) | 4 µg/mL (≈ 17.1 µM) | -0.6021 | 0.464 | – | – | – |
| NNC(=O)C(O)c1ccccc1 (configuration not stated) | 40 µg/mL (≈ 241 µM) | -1.602 | -1.37 | – | – | – |
| NNC(=O)Cc1ccncc1 | 100 µg/mL (≈ 662 µM) | -2 | -2.69 | – | – | – |
| CNC1C(OC2C(OC3C(O)C(O)C(NC(=N)N)C(O)C3NC(=N)N)OC(C)C2(O)/C=N\NC(=O)c2ccncc2)OC(CO)C(O)C1O (configuration not stated) | – | – | – | – | 0.82 | 0.15 µg/mL (≈ 0.214 µM) |
| NNC(=O)c1cccnc1 [NICOTINIC ACID HYDRAZIDE] | 2 µg/mL (≈ 14.6 µM) | -0.301 | – | -2.32 | – | – |
| NNC(=O)c1nc2ccccc2[nH]1 | 15 µg/mL (≈ 85.1 µM) | -1.176 | -1.73 | – | – | – |
| NNC(=O)c1ccc([N+](=O)[O-])cc1 | 12 µg/mL (≈ 66.2 µM) | -1.079 | -1.1 | – | – | – |
| NNC(=O)c1ccc(I)cc1 | 6 µg/mL (≈ 22.9 µM) | -0.7782 | 0.278 | – | – | – |
| CCC(CC)NNC(=O)c1ccncc1 | 3 µg/mL (≈ 14.5 µM) | -0.4771 | -0.19 | – | – | – |
| NNC(=O)C(O)(c1ccccc1)c1ccccc1 | 100 µg/mL (≈ 413 µM) | -2 | 0.196 | – | – | – |
| NNC(=O)c1ccncn1 | 20 µg/mL (≈ 145 µM) | -1.301 | -2.87 | – | – | – |
| CCCCCC/C=N/NC(=O)c1cccs1 | 6 µg/mL (≈ 25.2 µM) | -0.7782 | 1.84 | – | – | – |
| NNC(=O)c1ccncc1N | 1.5 µg/mL (≈ 9.86 µM) | -0.1761 | -3.12 | – | – | – |
| NNC(=O)C1CCC(C(=O)NN)CC1 (configuration not stated) | 300 µg/mL (≈ 1500 µM) | -2.477 | – | -4.55 | – | – |
| CC(C(=O)c1ccncc1)C(/C=N/N)C(=O)c1ccncc1 (configuration not stated) | 0.5 µg/mL (≈ 1.69 µM) | 0.301 | -2.43 | – | – | – |
| NNC(=O)/C=C/c1ccco1 | 3 µg/mL (≈ 19.7 µM) | -0.4771 | -2.02 | – | – | – |
| NNC(=O)c1cnc(N)s1 | 6 µg/mL (≈ 37.9 µM) | -0.7782 | -2.78 | – | – | – |
